Measurements taken from patent US20100008971A1, “CHEWING COMPOSITION COMPRISING COENZYME Q10” (SAN-EI GEN F.F.I., INC., priority 2006, published 2010).

Legend:
[1] = Release of Coenzyme Q10 into saliva from stick gums chewed by four subjects (HPLC of chewed gum); format: in vivo, human; conditions: 0.048 wt % CoQ10 in gum, 1 g chewed 5 min, 60 times/min
Procedure: Using one of Samples 1 to 5 obtained above, raw materials were blended according to the formulation shown below such that the content of Coenzyme Q10 in 100 g of the resulting stick gum would be 48 mg, and each mixture was molded to form a stick gum. Specific procedures are as follows: A gum base was first kneaded at 70° C. with sugar, corn syrup and glycerol, and the mixture was blended with Lemon Oil No. 2451* (flavoring agent) and San Yellow^‡ No. 3* (colorant). One each of Samples 1, 2, 3, 4 or 5 was then added to the resulting mixture. After cooling to room temperature, each material was rolled and molded to prepare a chewing gum (stick gum). The gum base used in the following formulation was purchased from Lotte, Co., Ltd. (Gum Base LT1).
Each type of the stick gums thus prepared was sampled in a precise amount of 4 g, and placed in a stoppered centrifuge tube. To the tube was added 10 ml of a 20% (v/v) tetrahydrofuran aqueous solution. The tube was then equipped with a Dimroth condenser, and the solution was refluxed, while occasionally mixing it by shaking, in a hot bath at 82° C. for 30 minutes. The refluxed solution was then cooled to room temperature, and 15 ml of diethyl ether was added, followed by extraction with shaking for 10 minutes. […]
The proportion of Coenzyme Q10 released into saliva was determined based on Equation 1: […]

[2] = Release of Coenzyme Q10 into saliva from sugar-coated gums with the sample in the sugar coating, chewed by four subjects; format: in vivo, human; conditions: sugar-coated gum, 0.020 wt % CoQ10 in gum, one piece (1.5 g) chewed 5 min, 60 times/min
Procedure: Sugar-coated gums (1.5 g/tablet) each comprising Coenzyme Q10 in the sugar coating were prepared in the manner described below such that the content of Coenzyme Q10 in 100 g of the sugar-coated gum was 20 mg.
A gum base (trade name: Gum Base LT2, manufactured by Lotte, Co., Ltd.) was kneaded at 70° C. with xylitol, corn syrup and glycerol, and after the addition of Lemon Oil No. 2451* (flavoring agent), the mixture was cooled to room temperature and molded to a tablet shape.
Maltitol and gum arabic were added to water and dissolved by heating. After cooling the mixture to room temperature, one each of Sample 1, 2, 4, 5 or 6 was added and mixed homogeneously.
The sugar solutions thus obtained were each spray dried over the gum centers using a coating pan and dried. The proportion of the sugar-coating layer was 50 parts by weight to 100 parts by weight of the gum center. […]
Each type of the sugar-coated gums prepared above were sampled in a precise amount of 6 g (total weight of four pieces), and one piece each of these gums was chewed by four subjects under the same conditions as in Test Example 1. […] The samples were subjected to HPLC under the same conditions to determine the contents of Coenzyme Q10 in the chewed gums, and then the release of Coenzyme Q10 into saliva from these gums was evaluated as in Test Example 1.

Question: What does the source list for `COC1=C(OC)C(=O)C(C/C=C(\C)CC/C=C(\C)CC/C=C(\C)CC/C=C(\C)CC/C=C(\C)CC/C=C(\C)CC/C=C(\C)CC/C=C(\C)CC/C=C(\C)CCC=C(C)C)=C(C)C1=O` [Sample 5, Coenzyme Q10]?
Answer: Release (%) of Coenzyme Q10 into saliva [1]: 0%; Release (%) of Coenzyme Q10 into saliva [2]: 30.0%
